The target of one data set is T1, ABL1-nonphosphorylated (Homo sapiens, UniProt P00519).
T1 construct: purchased Discoverex (KINOMEscan service)
In words: KINOMEScan single concentration. The following applies: 1 μM. The format is binding. How it is done:
(§1) The inhibitor-kinase binding affinity was assessed in KINOMEscan™ assay (Discoverex) according to service provider’s protocol. In brief, in this binding assay the studied compound in solution is incubated with DNA-tagged kinase and kinase active-site directed ligand bound to the beads. The compound competes for binding to kinase with the immobilized ligand. After incubation beads are removed from the solution and kinase bound to ligand is quantified by qPCR. The strength of compound binding is determined based on its ability to block kinase-ligand binding. 11-point 3-fold serial dilution of CPL302-253 was used in order to determine its binding constants (Kd) against different isotypes of class I PI3K. The single concentration of CPL302-253 was used in order to determine its specificity in abroad panel of 468 human kinases. The measure of compounds affinity to each kinase in the panel was the percentage of kinase activity inhibition by tested ligand in comparison to the control.

The next data set addresses T2, MEK5 (Homo sapiens, UniProt Q13163).
T2 construct: purchased Discoverex (KINOMEscan service)
The experiment in a line: KINOMEScan single concentration. The following applies: 1 μM. The format is binding. How it is done: as §1

In a further data set the target is T3, PIK3CA (Homo sapiens, UniProt P42336).
T3 construct: purchased Discoverex (KINOMEscan service)
In words: KINOMEScan single concentration. Format: binding. The settings on record: 1 μM. As for the experimental part:
as §1

For the next data set, the target named is T4, PIK3CA(C420R) (Homo sapiens, UniProt P42336, C420R).
T4 construct: purchased Discoverex (KINOMEscan service)
In words: KINOMEScan single concentration. The settings on record: 1 μM. The format is binding. How it is done: as §1

A further data set addresses T5, PIK3CA(E542K) (Homo sapiens, UniProt P42336, E542K).
T5 construct: purchased Discoverex (KINOMEscan service)
In words: KINOMEScan single concentration. The format is binding. The settings on record: 1 μM. As for the experimental part: as §1

Another data set addresses T6, PIK3CA(E545A) (Homo sapiens, UniProt P42336, E545A).
T6 construct: purchased Discoverex (KINOMEscan service)
The experiment in a line: KINOMEScan single concentration. Format: binding. The settings on record: 1 μM. How it is done:
as §1

Another data set concerns the target T7, PIK3CA(E545K) (Homo sapiens, UniProt P42336, E545K).
T7 construct: purchased Discoverex (KINOMEscan service)
The experiment in a line: KINOMEScan single concentration. The following applies: 1 μM. The format is binding. How it is done: as §1

The target of another data set is T8, PIK3CA(H1047L) (Homo sapiens, UniProt P42336, H1047L).
T8 construct: purchased Discoverex (KINOMEscan service)
The experiment in a line: KINOMEScan single concentration. Format: binding. The settings on record: 1 μM. As for the experimental part:
as §1

In another data set the target is T9, PIK3CA(H1047Y) (Homo sapiens, UniProt P42336, H1047Y).
T9 construct: purchased Discoverex (KINOMEscan service)
In words: KINOMEScan single concentration. Format: binding. The following applies: 1 μM. How it is done:
as §1

Another data set concerns the target T10, PIK3CA(I800L) (Homo sapiens, UniProt P42336, I800L).
T10 construct: purchased Discoverex (KINOMEscan service)
In words: KINOMEScan single concentration. Format: binding. The following applies: 1 μM. As for the experimental part:
as §1

The target of a further data set is T11, PIK3CA(M1043I) (Homo sapiens, UniProt P42336, M1043I).
T11 construct: purchased Discoverex (KINOMEscan service)
In words: KINOMEScan single concentration. The format is binding. The following applies: 1 μM. How it is done: as §1

Another data set addresses T12, PIK3CA(Q546K) (Homo sapiens, UniProt P42336, Q546K).
T12 construct: purchased Discoverex (KINOMEscan service)
In words: KINOMEScan single concentration. Format: binding. The settings on record: 1 μM. How it is done:
as §1

The target in another data set is T13, PIK3CB (Homo sapiens, UniProt P42338).
T13 construct: purchased Discoverex (KINOMEscan service)
In words: KINOMEScan single concentration. The format is binding. The settings on record: 1 μM. How it is done: as §1

The next data set concerns the target T14, PIK3CD (Homo sapiens, UniProt O00329).
T14 construct: purchased Discoverex (KINOMEscan service)
The experiment in a line: KINOMEScan single concentration. Format: binding. The settings on record: 1 μM. How it is done: as §1

Another data set concerns the target T15, PIK3CG (Homo sapiens, UniProt P48736).
T15 construct: purchased Discoverex (KINOMEscan service)
In words: KINOMEScan single concentration. Format: binding. The following applies: 1 μM. As for the experimental part: as §1

A further data set addresses T16, ULK2 (Homo sapiens, UniProt Q8IYT8).
T16 construct: purchased Discoverex (KINOMEscan service)
The experiment in a line: KINOMEScan single concentration. The format is binding. The following applies: 1 μM. As for the experimental part: as §1

The test system of data set [1] is CD19 B cells and PBMC stimulated with αIgM and TCR ligands. The experiment in a line: BioMAP profiling, BT system. The format is cell-based, human. How it is done:
(§2) BioMap Profiling study was performed by DiscovereX according to service provider’s protocol. In brief cultures or co-cultures of human primary cells were treated with sets of stimulators specific for cell subsets. […] The expression of biomarkers specific for each system was measured by ELISA and other techniques. The results are shown as log-transformed ratio of the biomarker readouts for the drug-treated sample to vehicle controls. The grey area parallel to the x-axis indicates the 95% significance region calculated based on historical vehicle controls. […]

Data set [2] concerns human primary cell cultures and co-cultures. The format is cell-based. As for the experimental part: as §2
A further data set has as its system neutrophils. In words: Neutrophil ROS production. Format: cell-based, human. As for the experimental part:
Neutrophils were isolated using EasySep Direct Human Neutrophil Isolation Kit (StemCell Technologies) from fresh whole blood of healthy donors according to manufacturer’s protocol. Cells were cultured in AIM V medium (Gibco). Cells were loaded for 30 min at 37°C in humidified incubator in the presence of 5% CO2 with DCFDA (2’,7’–dichlorofluorescein diacetate), a fluorescent ROS indicator. Subsequently neutrophils were treated for 15 min with CPL302-253 and dexamethasone. In the next step 20 ng/ml of human GM-CSF (StemCell Technologies) was added to prime cells. 15 min later 1 μg/ml LPS from E. coli O55:B5 (Sigma-Aldrich) was added to induce ROS generation. The ROS accumulation in the neutrophils was assessed on FACSCalibur 2 h after LPS stimulation.

“And” between values parts separate entries of the source, which are not always exact repeats. Equal values may be shown once.

T11 sequence (P42336 whole entry M1043I): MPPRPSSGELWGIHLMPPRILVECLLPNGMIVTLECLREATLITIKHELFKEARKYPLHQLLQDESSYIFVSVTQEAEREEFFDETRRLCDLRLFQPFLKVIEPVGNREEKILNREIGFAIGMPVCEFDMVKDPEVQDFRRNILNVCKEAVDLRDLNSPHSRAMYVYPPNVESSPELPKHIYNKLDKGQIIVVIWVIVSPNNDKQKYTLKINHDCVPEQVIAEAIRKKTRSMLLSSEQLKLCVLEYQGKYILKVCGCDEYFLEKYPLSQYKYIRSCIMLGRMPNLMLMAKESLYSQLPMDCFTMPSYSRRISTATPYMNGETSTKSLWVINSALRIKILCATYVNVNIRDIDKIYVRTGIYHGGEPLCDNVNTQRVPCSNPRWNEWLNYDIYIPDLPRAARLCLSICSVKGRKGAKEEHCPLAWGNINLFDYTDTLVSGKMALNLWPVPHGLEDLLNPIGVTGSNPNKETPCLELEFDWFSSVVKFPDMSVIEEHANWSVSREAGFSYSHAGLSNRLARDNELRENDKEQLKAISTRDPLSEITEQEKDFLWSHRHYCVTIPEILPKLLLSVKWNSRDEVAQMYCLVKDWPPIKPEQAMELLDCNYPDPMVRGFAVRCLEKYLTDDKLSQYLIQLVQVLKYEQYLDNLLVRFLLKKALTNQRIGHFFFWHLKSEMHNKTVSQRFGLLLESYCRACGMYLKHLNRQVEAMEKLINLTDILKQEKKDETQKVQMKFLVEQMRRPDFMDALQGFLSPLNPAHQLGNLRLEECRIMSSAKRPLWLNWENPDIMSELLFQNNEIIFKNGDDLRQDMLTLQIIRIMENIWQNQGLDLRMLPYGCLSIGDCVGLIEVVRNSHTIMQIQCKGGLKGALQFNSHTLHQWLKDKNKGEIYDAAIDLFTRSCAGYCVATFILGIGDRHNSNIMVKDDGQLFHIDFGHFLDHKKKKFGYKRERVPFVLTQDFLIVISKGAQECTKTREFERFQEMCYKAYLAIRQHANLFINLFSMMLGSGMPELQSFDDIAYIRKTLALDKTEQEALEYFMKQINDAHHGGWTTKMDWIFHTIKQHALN
T10 sequence (P42336 whole entry I800L): as the sequence (P42336 whole entry M1043I) above, with I800L, I1043M counted along it
T13 sequence (P42338 whole entry): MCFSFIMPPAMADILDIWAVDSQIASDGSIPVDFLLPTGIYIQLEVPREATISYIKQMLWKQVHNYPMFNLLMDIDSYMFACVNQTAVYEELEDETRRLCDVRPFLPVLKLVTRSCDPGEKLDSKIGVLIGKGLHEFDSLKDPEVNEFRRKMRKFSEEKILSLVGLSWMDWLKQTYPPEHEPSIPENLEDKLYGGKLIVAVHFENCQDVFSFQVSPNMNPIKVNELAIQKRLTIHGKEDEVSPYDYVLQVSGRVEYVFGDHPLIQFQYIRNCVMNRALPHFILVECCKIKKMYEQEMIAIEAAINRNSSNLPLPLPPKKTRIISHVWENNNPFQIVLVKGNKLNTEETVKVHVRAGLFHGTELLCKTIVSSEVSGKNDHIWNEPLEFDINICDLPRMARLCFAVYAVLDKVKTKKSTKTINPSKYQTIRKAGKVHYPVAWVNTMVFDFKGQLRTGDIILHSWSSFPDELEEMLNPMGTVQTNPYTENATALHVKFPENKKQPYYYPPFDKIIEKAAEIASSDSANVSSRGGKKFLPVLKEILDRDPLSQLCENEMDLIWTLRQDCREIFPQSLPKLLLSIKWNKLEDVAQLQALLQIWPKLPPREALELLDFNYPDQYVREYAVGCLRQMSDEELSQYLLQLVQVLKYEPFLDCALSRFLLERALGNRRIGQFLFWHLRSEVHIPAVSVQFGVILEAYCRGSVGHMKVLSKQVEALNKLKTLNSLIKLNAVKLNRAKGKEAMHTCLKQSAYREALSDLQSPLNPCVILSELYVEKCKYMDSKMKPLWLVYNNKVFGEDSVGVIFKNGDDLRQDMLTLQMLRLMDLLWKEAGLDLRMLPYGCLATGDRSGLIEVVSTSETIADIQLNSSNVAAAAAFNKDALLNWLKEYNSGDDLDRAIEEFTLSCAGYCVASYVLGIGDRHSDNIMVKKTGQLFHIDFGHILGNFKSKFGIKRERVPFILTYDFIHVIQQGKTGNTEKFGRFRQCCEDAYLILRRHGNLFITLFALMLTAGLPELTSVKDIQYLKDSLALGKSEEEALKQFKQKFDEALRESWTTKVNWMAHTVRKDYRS
T1 sequence (P00519 whole entry): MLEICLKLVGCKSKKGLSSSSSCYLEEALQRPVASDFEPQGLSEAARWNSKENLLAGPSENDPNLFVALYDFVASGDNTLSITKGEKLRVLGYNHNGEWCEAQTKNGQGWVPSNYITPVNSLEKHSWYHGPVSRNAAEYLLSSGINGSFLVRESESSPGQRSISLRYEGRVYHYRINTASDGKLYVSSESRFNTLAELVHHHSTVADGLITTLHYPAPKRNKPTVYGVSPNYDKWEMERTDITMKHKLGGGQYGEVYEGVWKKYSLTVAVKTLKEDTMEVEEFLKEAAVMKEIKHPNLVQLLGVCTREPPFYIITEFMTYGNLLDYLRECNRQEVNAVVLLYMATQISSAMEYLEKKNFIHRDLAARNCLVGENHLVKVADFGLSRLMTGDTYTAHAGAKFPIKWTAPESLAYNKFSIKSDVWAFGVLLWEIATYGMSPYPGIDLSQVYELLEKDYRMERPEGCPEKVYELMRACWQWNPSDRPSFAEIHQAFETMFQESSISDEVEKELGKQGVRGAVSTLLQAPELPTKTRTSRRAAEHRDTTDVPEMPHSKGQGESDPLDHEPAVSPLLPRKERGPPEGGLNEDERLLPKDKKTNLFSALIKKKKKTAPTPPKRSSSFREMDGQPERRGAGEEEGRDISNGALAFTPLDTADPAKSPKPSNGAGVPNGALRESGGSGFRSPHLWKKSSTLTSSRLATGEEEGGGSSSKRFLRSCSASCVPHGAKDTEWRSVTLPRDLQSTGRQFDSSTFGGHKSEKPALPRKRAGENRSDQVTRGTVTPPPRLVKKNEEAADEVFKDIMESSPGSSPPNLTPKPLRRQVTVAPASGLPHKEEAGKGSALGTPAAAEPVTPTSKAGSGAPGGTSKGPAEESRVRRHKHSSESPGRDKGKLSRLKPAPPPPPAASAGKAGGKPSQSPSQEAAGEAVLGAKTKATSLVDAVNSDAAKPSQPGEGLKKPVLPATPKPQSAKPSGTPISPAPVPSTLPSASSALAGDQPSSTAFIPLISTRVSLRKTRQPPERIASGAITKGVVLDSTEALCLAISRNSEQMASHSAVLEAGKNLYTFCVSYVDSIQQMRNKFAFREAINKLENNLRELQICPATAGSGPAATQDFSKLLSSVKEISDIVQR
T2 sequence (Q13163 whole entry): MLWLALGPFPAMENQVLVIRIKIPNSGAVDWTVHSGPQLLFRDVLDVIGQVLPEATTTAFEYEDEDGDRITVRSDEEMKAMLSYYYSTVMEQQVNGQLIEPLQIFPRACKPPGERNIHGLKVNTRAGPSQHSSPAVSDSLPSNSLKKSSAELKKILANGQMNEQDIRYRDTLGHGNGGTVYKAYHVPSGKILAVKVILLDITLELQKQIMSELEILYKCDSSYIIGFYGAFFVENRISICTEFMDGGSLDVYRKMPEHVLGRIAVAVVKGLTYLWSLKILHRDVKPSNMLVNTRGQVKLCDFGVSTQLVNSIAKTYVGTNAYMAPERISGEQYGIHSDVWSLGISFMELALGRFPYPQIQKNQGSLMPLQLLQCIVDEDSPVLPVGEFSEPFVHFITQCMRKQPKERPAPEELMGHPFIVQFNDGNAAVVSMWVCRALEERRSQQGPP
T3 sequence (P42336 whole entry): as the sequence (P42336 whole entry M1043I) above, with I1043M counted along it
T6 sequence (P42336 whole entry E545A): as the sequence (P42336 whole entry M1043I) above, with E545A, I1043M counted along it
T5 sequence (P42336 whole entry E542K): as the sequence (P42336 whole entry M1043I) above, with E542K, I1043M counted along it
T4 sequence (P42336 whole entry C420R): as the sequence (P42336 whole entry M1043I) above, with C420R, I1043M counted along it
T14 sequence (O00329 whole entry): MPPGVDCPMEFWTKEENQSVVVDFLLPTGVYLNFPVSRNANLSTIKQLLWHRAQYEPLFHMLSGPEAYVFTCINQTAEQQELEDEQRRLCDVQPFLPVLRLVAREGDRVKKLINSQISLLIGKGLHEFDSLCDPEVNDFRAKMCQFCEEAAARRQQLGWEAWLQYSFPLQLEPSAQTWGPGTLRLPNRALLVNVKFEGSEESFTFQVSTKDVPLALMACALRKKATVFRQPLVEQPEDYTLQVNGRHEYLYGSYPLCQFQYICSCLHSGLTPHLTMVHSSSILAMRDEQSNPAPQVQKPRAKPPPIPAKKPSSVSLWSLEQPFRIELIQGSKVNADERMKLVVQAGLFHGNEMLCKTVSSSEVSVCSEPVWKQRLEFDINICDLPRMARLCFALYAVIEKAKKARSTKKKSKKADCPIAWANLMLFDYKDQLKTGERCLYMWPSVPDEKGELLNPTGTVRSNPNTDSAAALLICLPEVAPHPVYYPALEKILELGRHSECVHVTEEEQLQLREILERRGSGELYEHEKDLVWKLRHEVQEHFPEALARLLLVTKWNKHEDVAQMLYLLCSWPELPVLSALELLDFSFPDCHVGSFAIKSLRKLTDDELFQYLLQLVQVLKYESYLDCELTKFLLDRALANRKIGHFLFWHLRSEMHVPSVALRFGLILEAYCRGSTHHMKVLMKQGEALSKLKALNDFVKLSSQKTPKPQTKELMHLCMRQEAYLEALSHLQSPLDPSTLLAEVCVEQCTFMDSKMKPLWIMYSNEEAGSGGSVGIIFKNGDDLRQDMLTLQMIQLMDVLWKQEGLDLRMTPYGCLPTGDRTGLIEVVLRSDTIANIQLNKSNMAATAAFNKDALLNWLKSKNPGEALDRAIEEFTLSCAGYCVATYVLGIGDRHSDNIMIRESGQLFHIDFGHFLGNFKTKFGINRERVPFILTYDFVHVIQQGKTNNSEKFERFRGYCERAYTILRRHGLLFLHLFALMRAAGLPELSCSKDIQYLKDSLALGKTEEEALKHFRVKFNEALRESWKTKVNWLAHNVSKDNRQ
T12 sequence (P42336 whole entry Q546K): as the sequence (P42336 whole entry M1043I) above, with Q546K, I1043M counted along it
T9 sequence (P42336 whole entry H1047Y): as the sequence (P42336 whole entry M1043I) above, with I1043M, H1047Y counted along it

In the case of `CC(C)(C)N1CCN(Cc2cc3nc(-c4cncc5[nH]ccc45)cc(N4CCOCC4)n3n2)CC1` [CPL302-253], the “Remaining binding (%)” value is recorded as 36% at ABL1-nonphosphorylated; 35% on MEK5; 96% on PIK3CA; 12% at PIK3CA(C420R); 82% at PIK3CA(E542K); 45% at PIK3CA(E545A). Further, the “Remaining binding (%)” value on PIK3CA(E545K) is 54%; on PIK3CA(H1047L), 92%; on PIK3CA(H1047Y) it was 0%; at PIK3CA(I800L) it was 44%; on PIK3CA(M1043I) it was 100%; on PIK3CA(Q546K) it was 99%. The “Remaining binding (%)” value at PIK3CB is 42%; at PIK3CD, 1.1%; on PIK3CG it was 94%; at ULK2, 33%. The “expression of IL-2, IL-6, IL-17 and TNFα in BT system” value in data set [1] is recorded as “inhibits the expression of all of listed markers in BT system”. Moreover, the “proliferation of B cells” value in [1] was “blocked proliferation of B cells”. In data set [2], the “cytotoxic effects in BioMap culture systems” value is “no cytotoxic effects observed”. Further, the “impact on other studied BioMAP systems” value in data set [2] (systems other than BT, except PAI-1 in KF3CT) is “no impact”. The “neutrophils stained positively by ROS fluorescent indicator (Fig 4C), single replicates” value in the data set on neutrophils (GM-CSF 20 ng/ml and LPS 1 μg/ml, 2 h) was 52 and 10 and 17 and 22 and 2 and 9. The “ROS accumulation in neutrophils” value in the data set with neutrophils (GMCSF/LPS stimulation) is “reduced ROS accumulation”.

(Values after paper PMC7377474, “Preclinical characterization of CPL302-253, a selective inhibitor of PI3Kδ, as the candidate for the inhalatory treatment and prevention of Asthma” (PLoS ONE, 2020).)
